Measurements from publication PMC4638191, “Multicomponent reaction-based synthesis and biological evaluation of tricyclic heterofused quinolines with multi-trypanosomatid activity” (European Journal of Medicinal Chemistry, 2015).
Read-outs that look alike come from different tables or passages of the source.

Assays:
[1] = system: L. infantum strain MCAN/ES/92/BCN722 promastigote forms; experiment: Activity against promastigotes of L. infantum (acid phosphatase); assay type: cell-based, Leishmania infantum; settings: promastigote form, mean ± SD of duplicate experiments performed at least twice
[2] = molecular target: Electrophorus electricus AChE (EeAChE) (Electrophorus electricus, UniProt O42275); experiment: biochemical; assay type: biochemical; settings: mean ± SEM
[3] = system: T. cruzi strain MHOM/ES/2203/BCN590 (Tcl) epimastigote forms; experiment: Activity against epimastigotes of T. cruzi (cell counting); settings: mean ± SD of duplicate experiments performed at least twice
[4] = system: bloodstream form T. brucei (strain 221); experiment: Trypanocidal activity against cultured bloodstream form T. brucei (resazurin); settings: for IC50: mean of triplicate ± SEM; for IC90: pH 7.4, read-out: T. brucei IC90
Method: T. brucei in the logarithmic phase of growth were diluted back to 2.5 × 10^4 mL^−1 and aliquoted into 96-well plates. The compounds were then added at a range of concentrations and the plates incubated at 37 °C. Each drug concentration was tested in triplicate. Resazurin was added after 48 h and the plates incubated for a further 16 h and the plates then read in a Spectramax plate reader. Results were analysed using GraphPad Prism.

[5] = for Pe: PAMPA-BBB, PBS:EtOH 70:30, mean ± SD of three independent experiments; for Pe (prediction) of BBB permeation: class from PAMPA-BBB Pe
Method: Thus, the brain passive permeability of the novel compounds was evaluated in vitro through the widely used PAMPA-BBB method [[50]

[6] = system: rat skeletal myoblast L6 cells; experiment: cells; settings: L6, read-out: L6 cells IC50
Method: (§1) Cytotoxicity against mammalian cells was assessed using microtitre plates following a described procedure [58]. Briefly, rat skeletal muscle L6 cells were seeded at 1 × 10^4 mL^−1 in 200 μL of growth medium containing different compound concentrations. The plates were incubated for 6 days at 37 °C and 20 μL resazurin was then added to each well. After a further 8 h incubation, the fluorescence was determined using a Spectramax plate reader.

[7] = in vitro; settings: rat, rat skeletal muscle L6 cells
Method: as §1

[8] = Trypanosoma cruzi, read-out: T. cruzi IC50, epimastigote form
[9] = read-out: T. cruzi IC50, epimastigote form
[10] = Trypanosoma brucei, pH 7.4, read-out: T. brucei IC50, bloodstream form, pH 7.4
[11] = SILi: selectivity index as the ratio of cytotoxic to anti-L. infantum IC50 values, L6 IC50 / L. infantum IC50
[12] = SITb: selectivity index as the ratio of cytotoxic to anti-T. brucei IC50 values, L6 IC50 / T. brucei IC50
[13] = SITc: selectivity index as the ratio of cytotoxic to anti-T. cruzi IC50 values, L6 IC50 / T. cruzi IC50
[14] = read-out: T. brucei IC50, bloodstream form, pH 7.4

Sequence of Electrophorus electricus AChE (EeAChE) (O42275 24-633): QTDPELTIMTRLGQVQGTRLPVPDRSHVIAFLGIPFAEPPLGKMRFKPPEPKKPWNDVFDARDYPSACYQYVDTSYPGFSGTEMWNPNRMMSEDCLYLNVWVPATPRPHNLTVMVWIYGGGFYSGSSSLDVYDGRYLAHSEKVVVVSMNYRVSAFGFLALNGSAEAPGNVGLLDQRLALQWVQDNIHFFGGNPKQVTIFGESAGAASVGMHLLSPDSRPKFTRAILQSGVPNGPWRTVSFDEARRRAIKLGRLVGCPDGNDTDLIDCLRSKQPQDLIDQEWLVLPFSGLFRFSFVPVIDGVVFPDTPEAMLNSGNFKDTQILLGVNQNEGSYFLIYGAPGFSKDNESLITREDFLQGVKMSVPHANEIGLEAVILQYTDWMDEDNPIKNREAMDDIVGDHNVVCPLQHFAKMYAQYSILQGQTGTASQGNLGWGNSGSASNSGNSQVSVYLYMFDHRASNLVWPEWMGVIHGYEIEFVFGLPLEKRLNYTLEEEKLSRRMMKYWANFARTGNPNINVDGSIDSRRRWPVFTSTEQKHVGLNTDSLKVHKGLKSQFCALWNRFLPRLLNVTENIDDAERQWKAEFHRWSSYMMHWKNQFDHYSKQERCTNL

Row | SMILES | IC50 ([1]; Leishmania infantum) | IC50 [1] | IC50 [2] | IC50 [3, 8] | IC50 [3, 9] | IC50 [4, 10] | IC90 ([4]; Trypanosoma brucei) | Pe [5] | Pe (prediction) of BBB permeation [5] | IC50 [6] | selectivity ratio at 6 days [7, 11] | selectivity ratio at 6 days [7, 12] | selectivity ratio at 6 days [7, 13] | IC50 [4, 14]
1 | NCc1ccc(-c2nc3ccc(Cl)cc3c3c2CCCN3Cc2ccccc2)cc1 [Compound 3, 4-{1-Benzyl-9-chloro-1,2,3,4-tetrahydrobenzo[h][1,6]naphthyridin-5-yl}benzylamine] | ~30 µM | 31.1 ± 2.9 µM | 3.67 ± 0.55 µM | 9.47 µM | 9.5 ± 2.5 µM | 1 ± 0.03 µM | 1.19 ± 0.02 µM | 7.4 ± 0.2 10^−6 cm s^−1 | CNS+ (compounds of high BBB permeation (CNS+): Pe (10^−6 cm s^−1) > 5.25) | 6.78 ± 1.26 µM | 0.2 | 6.8 | 0.7 | 
2 | N#Cc1ccc(-c2nc3ccc(Cl)cc3c3c2CCN3)cc1 [Compound 26, 4-{8-Chloro-2,3-dihydro-1H-pyrrolo[3,2-c]quinolin-4-yl}benzonitrile] | > 200 µM |  | 1.19 ± 0.15 µM | > 150 µM |  | > 30 µM | > 30 µM | 6.8 ± 0.3 10^−6 cm s^−1 | CNS+ (compounds of high BBB permeation (CNS+): Pe (10^−6 cm s^−1) > 5.25) |  |  |  |  | 
3 | N#Cc1ccc(-c2nc3ccc(Cl)cc3c3c2CCCN3)cc1 [Compound 27, 4-{9-Chloro-1,2,3,4-tetrahydrobenzo[h][1,6]naphthyridin-5-yl}benzonitrile] | 15.3 ± 3.6 µM |  | 1.13 ± 0.17 µM | 147 ± 19 µM |  | 6.07 ± 0.54 µM | 10.5 ± 0.2 µM | 14.3 ± 0.1 10^−6 cm s^−1 | CNS+ (compounds of high BBB permeation (CNS+): Pe (10^−6 cm s^−1) > 5.25) | 38.8 ± 1.7 µM | 2.5 | 6.4 | 0.3 | 
4 | N#Cc1ccc(-c2nc3ccc(Cl)cc3c3c2CCCCN3)cc1 [Compound 28, 4-{10-Chloro-2,3,4,5-tetrahydro-1H-azepino[3,2-c]quinolin-6-yl}benzonitrile] | 13.7 ± 2.2 µM |  | 2.2 ± 0.3 µM | 64.6 ± 12.5 µM |  | 17.3 ± 2.1 µM | 28.6 ± 6.7 µM | 20.0 ± 1.1 10^−6 cm s^−1 | CNS+ (compounds of high BBB permeation (CNS+): Pe (10^−6 cm s^−1) > 5.25) |  |  |  |  | 
5 | N#Cc1ccc(-c2nc3cc(Cl)ccc3c3c2CCCN3)cc1 [Compound 29, 4-{8-Chloro-1,2,3,4-tetrahydrobenzo[h][1,6]naphthyridin-5-yl}benzonitrile] | 19 ± 3 µM |  | 3.27 ± 0.43 µM | 39.4 ± 0.2 µM |  | > 30 µM | > 30 µM | 16.2 ± 0.1 10^−6 cm s^−1 | CNS+ (compounds of high BBB permeation (CNS+): Pe (10^−6 cm s^−1) > 5.25) |  |  |  |  | 
6 | NCc1ccc(-c2nc3ccc(Cl)cc3c3c2CCN3)cc1 [Compound 30, 4-{8-Chloro-2,3-dihydro-1H-pyrrolo[3,2-c]quinolin-4-yl}benzylamine] | 6.5 ± 1.4 µM |  | 0.87 ± 0.08 µM | ~30 µM | 37.3 ± 11 µM | 0.92 ± 0.05 µM | 1.57 ± 0.03 µM | 7.4 ± 2.6 10^−6 cm s^−1 | CNS+ (compounds of high BBB permeation (CNS+): Pe (10^−6 cm s^−1) > 5.25) | 2.54 ± 0.92 µM | 0.4 | 2.8 | 0.1 | 
7 | NCc1ccc(-c2nc3ccc(Cl)cc3c3c2CCCN3)cc1 [Compound 31, 4-{9-Chloro-1,2,3,4-tetrahydrobenzo[h][1,6]naphthyridin-5-yl}benzylamine] | 11.6 ± 2.5 µM |  | 0.97 ± 0.02 µM | 50.5 ± 14.3 µM |  | 2.44 ± 0.13 µM | 3.48 ± 0.05 µM | 4.6 ± 0.2 10^−6 cm s^−1 |  | 8.92 ± 0.25 µM | 0.8 | 3.7 | 0.2 | 
8 | NCc1ccc(-c2nc3ccc(Cl)cc3c3c2CCCCN3)cc1 [Compound 32, 4-{10-Chloro-2,3,4,5-tetrahydro-1H-azepino[3,2-c]quinolin-6-yl}benzylamine] | 5 to 8 µM | 4.8 ± 0.7 µM | 1.2 ± 0.13 µM | ~30 µM | 32.4 ± 0.6 µM | 2.33 ± 0.12 µM | 3.35 ± 0.05 µM | 11.6 ± 0.2 10^−6 cm s^−1 | CNS+ (compounds of high BBB permeation (CNS+): Pe (10^−6 cm s^−1) > 5.25) | 7.02 ± 0.27 µM | 1.5 | 3 | 0.2 | 
9 | NCc1ccc(-c2nc3cc(Cl)ccc3c3c2CCCN3)cc1 [Compound 33, 4-{8-Chloro-1,2,3,4-tetrahydrobenzo[h][1,6]naphthyridin-5-yl}benzylamine] | 13 ± 0.6 µM |  | 0.44 ± 0.04 µM | 76.1 ± 3.2 µM |  | 1.25 ± 0.05 µM | 2.12 ± 0.02 µM | 4.0 ± 1.0 10^−6 cm s^−1 |  | 3.07 ± 0.66 µM | 0.2 | 2.5 | 0.04 | 
10 | N#Cc1ccc(-c2nc3cc(Cl)ccc3cc2CCCN)cc1 [Compound 35, 4-[3-(3-Aminopropyl)-7-chloroquinolin-2-yl]benzonitrile] | ~15 µM | 16.2 ± 4 µM |  | 78.8 ± 1.7 µM |  | ~5 µM | 5.61 ± 0.05 µM | 18.3 ± 0.6 10^−6 cm s^−1 | CNS+ (compounds of high BBB permeation (CNS+): Pe (10^−6 cm s^−1) > 5.25) | 20.4 ± 0.4 µM | 1.3 | 4.9 | 0.3 | 4.16 ± 0.07 µM
11 | N#Cc1ccc([C@H]2Nc3ccc(Cl)cc3[C@@H]3OCCC[C@H]23)cc1 [Compound 37] | > 200 µM |  |  | 676 ± 37 µM |  | > 30 µM | > 30 µM | 7.0 ± 0.7 10^−6 cm s^−1 | CNS+ (compounds of high BBB permeation (CNS+): Pe (10^−6 cm s^−1) > 5.25) |  |  |  |  | 
12 | N#Cc1ccc(-c2nc3ccc(Cl)cc3c3c2CCCO3)cc1 [Compound 38, 4-{9-Chloro-3,4-dihydro-2H-pyrano[3,2-c]quinolin-5-yl}benzonitrile] | 23.5 ± 2.4 µM |  | 2.7 ± 0.45 µM | 178 ± 92 µM |  | 9.61 ± 0.27 µM | 13.7 ± 1 µM | 29.7 ± 3.8 10^−6 cm s^−1 | CNS+ (compounds of high BBB permeation (CNS+): Pe (10^−6 cm s^−1) > 5.25) | 36.3 ± 8.1 µM | 1.5 | 3.8 | 0.2 | 
13 | Clc1ccc2nc(-c3ccco3)c3c(c2c1)OCCC3 [Compound 42, 9-Chloro-5-(2-furyl)-3,4-dihydro-2H-pyrano[3,2-c]quinoline] | 38.4 ± 21.6 µM |  | 16.3 ± 1.5 µM | 76.1 ± 7.8 µM |  | 21.7 ± 1.2 µM | 29.3 ± 0.5 µM | 3.5 ± 0.4 10^−6 cm s^−1 |  |  |  |  |  | 
14 | Clc1ccc2nc(-c3cccs3)c3c(c2c1)OCCC3 [Compound 43, 9-Chloro-3,4-dihydro-5-(2-thienyl)-2H-pyrano[3,2-c]quinoline] | 51.4 ± 2.3 µM |  | 9.39 ± 0.82 µM | > 250 µM |  | 18 ± 0.4 µM | 27.6 ± 1.1 µM | 14.4 ± 1.6 10^−6 cm s^−1 | CNS+ (compounds of high BBB permeation (CNS+): Pe (10^−6 cm s^−1) > 5.25) |  |  |  |  | 
15 | OCCCc1cc2cc(Cl)ccc2nc1-c1ccco1 [Compound 44, 3-[6-chloro-2-(2-furyl)quinolin-3-yl]-1-propanol] | 19.3 ± 11.3 µM |  |  | 29.3 ± 12 µM |  | > 25 µM | 70.6 ± 1.5 µM | 10.3 ± 1.5 10^−6 cm s^−1 | CNS+ (compounds of high BBB permeation (CNS+): Pe (10^−6 cm s^−1) > 5.25) |  |  |  |  | 35.7 ± 1.8 µM
16 | OCCCc1cc2cc(Cl)ccc2nc1-c1cccs1 [Compound 45, 3-[6-chloro-2-(2-thienyl)quinolin-3-yl]-1-propanol] | 37.3 ± 2.3 µM |  |  | 51.7 ± 19.4 µM |  | > 25 µM | 42.9 ± 1.5 µM | 28.4 ± 1.2 10^−6 cm s^−1 | CNS+ (compounds of high BBB permeation (CNS+): Pe (10^−6 cm s^−1) > 5.25) |  |  |  |  | 28 ± 0.7 µM
17 | N#CCCc1cc2cc(Cl)ccc2nc1-c1cccs1 [Compound 47, 3-[6-Chloro-2-(2-thienyl)quinolin-3-yl]propanenitrile] | 23.3 ± 5.9 µM |  |  | 51.7 ± 5.1 µM |  | > 25 µM | > 30 µM | 17.9 ± 1.1 10^−6 cm s^−1 | CNS+ (compounds of high BBB permeation (CNS+): Pe (10^−6 cm s^−1) > 5.25) |  |  |  |  | > 30 µM
18 | CCN(CC)CCCc1cc2cc(Cl)ccc2nc1-c1cccs1 [Compound 50, N-{3-[6-Chloro-2-(2-thienyl)quinolin-3-yl]propyl}-N,N-diethylamine] | ~15 µM | 13.6 ± 1.5 µM |  | 77.6 ± 11.2 µM |  | ~5 µM | 12.6 ± 0.9 µM | 20.9 ± 0.5 10^−6 cm s^−1 | CNS+ (compounds of high BBB permeation (CNS+): Pe (10^−6 cm s^−1) > 5.25) | 14.7 ± 2.3 µM | 1.1 | 2.3 | 0.2 | 6.33 ± 0.94 µM
